Data as given in patent US20120004180A1, “METHOD OF PRODUCING A NOVEL OPIOID PEPTIDE” (priority 2008, published 2012).

How the values were obtained:
[1] = system: acute pain in mice with inflammation; test: Tail immersion in water at 55° C. in mice with Freund's adjuvant-induced inflammation; type: in vivo; details: one week after Freund's adjuvant into the limb, intravenous injection 20 mg/kg
Experimental: Inflammation was induced in mice through application of Freund's adjuvant into the limb. A progressing inflammation was observed after two days. After a week, the analgesic effects on acute pain of the peptide analogue HCl.Tyr-D-Ala-Gly-Phe-NHNH-(CBz-D-Trp-) were examined via the immersion of the tail in water at 55° C.

[2] = system: acute pain in mice with inflammation; test: Tail immersion in water heated to 55° C. in murine melanoma metastasis model with inflammation; type: in vivo; details: two weeks after murine melanoma cells into the hind limb, intraperitoneal injection 30 mg/kg
Experimental: In an animal metastasis model, inflammation was induced by administering around a million cells of murine melanoma into the hind limb. After two days, a progressing inflammation was observed, elicited by tumour take. After two weeks of tumour development, the analgesic activity of (N′-Tyrosyl-D-alanyl-glycyl-phenylalanyl, N″-salicyl-glycyl-D-tryptophanyl)-hydrazide was examined against acute pain caused by tail immersion in water heated to 55° C.

pain = details: experiments on animals; intrathecal application in rats; cited from earlier work
physical dependence = details: compared with morphine; cited from earlier work
thermal pain = test: Thermal pain sensitivity after subarachnoid administration via cannula; type: in vivo; details: rats, dose of 5 mg
From the text: Two days prior to the experiments, rats were implanted with cannulae into the subarachnoid cavity. During the experiment, the analgesic activity was examined by administering the peptide analogue (N′-Tyrosyl-D-alanyl-glycyl-phenylalanyl, N″-alpha-methyl-4-(2-methylpropyl) benzenoacetyl-D-tryptophanyl)-hydrazide.

## (N′-tyrosyl-D-alanyl-glycyl-phenylalanyl, N″-benzoxycarbonyl-D-tryptophanyl) hydrazide [Example I]
[1]
  pain reaction (analgesic effect on acute pain, tail immersion): completely mitigated

## (N′-Tyrosyl-D-alanyl-glycyl-phenylalanyl, N″-salicyl-glycyl-D-tryptophanyl)-hydrazide [Example II]
[2]
  pain reaction (analgesic activity against acute pain, tail immersion): completely mitigated

## C[C@@H](NC(=O)[C@@H](N)Cc1ccc(O)cc1)C(=O)NCC(=O)N[C@@H](Cc1ccccc1)C(=O)NNC(=O)[C@H](Cc1ccccc1)NC(=O)CNC(=O)[C@@H](C)NC(=O)[C@@H](N)Cc1ccc(O)cc1 [biphalin]
pain
  analgesic activity: significant analgesic activity
Physical dependence
  habit-forming activity (physical dependence): much lesser habit-forming activity

## (N′-Tyrosyl-D-alanyl-glycyl-phenylalanyl, N″-alpha-methyl-4-(2-methylpropyl) benzenoacetyl-D-tryptophanyl)-hydrazide [Example III]
Thermal pain
  duration of elimination of sensitivity to thermal pain: 1 h
  sensitivity to thermal pain: complete elimination
